Among the data in patent US20250288571A1 (Nested Therapeutics, Inc., priority 2024, published 2025) are IC50 and viability values, retold here.

One assay has as its system IPC298 cells. As to the kind of experiment: IPC298 Cell Titer Glow assay (CTG). Particulars: Homo sapiens, IPC-298, 72 h, read-out: CTG IC50 (nM) Cell Line: IPC298.2. (In general: In ATP-based viability assays light output follows the ATP content of the culture.)
Assay [1] relates to pMEK. As to the kind of experiment: pMEK AlphaLISA (MEK1 pS218/222), A549 cells, EGF stimulated. Particulars: Homo sapiens, 2 h compound, EGF 30 ng/ml 15 min. Type of assay: cell-based. On the procedure: (§1) Determination of pMEK IC50s
(§2) A549 cells were cultured in F12K/10% FBS media (ATCC CAT #21127022) and were seeded at 10000 cells/well and HCT116 cells were cultured in McCoy's 5A/10% FBS media (Gibco Cat #30-2007) were seeded at 15000 cells/well in 384 microplates (Corning CAT #3765). Cells were incubated overnight in a TC incubator. Compounds were serially diluted and added to cells for 2 h in a TC incubator. At the end of the 2 h EGF (R&D Systems 236-EG-200) was added at a final EGF concentration of 30 ng/ml and incubated for 15 minutes at 37° C. in a TC incubator. AlphaLisa (Perkin Elmer) was performed according to manufacturer's instructions (Perkin Elmer CAT #ALPHA.SF ULTRA MEK1 PS218/222). The percent (%) inhibition at each concentration of compound is calculated based on and relative to the AlphaLISA signal in the HPE and ZPE control wells contained within each assay plate. The ZPE control wells contain cells and DMSO as 0% inhibition, and the HPE control wells only contain cells and control compound (Sellekchem Staurosporin CAT #S1421) as 100% inhibition.
Background: In Alpha technology, singlet oxygen from a donor bead excites a nearby acceptor bead.

In assay [2] the test system is pMEK. Briefly: pMEK AlphaLISA (MEK1 pS218/222), HCT116 cells, EGF stimulated. Type of assay: cell-based. Particulars: Homo sapiens, HCT-116, 2 h compound, EGF 30 ng/ml 15 min. The procedure:
as §1, §2

Assay [3] has as its system pERK Thr202/Tyr204. As to the kind of experiment: pERK HTRF detection of pERK Thr202/Tyr204, HCT116 cells. It counts as cell-based. Particulars: Homo sapiens, HCT-116, 2 h compound. On the procedure: (§3) pERK: Detection of pERK Thr202/Tyr204
(§4) A549 cultured in F-12K/10% FBS were seeded at 10000 cells/well, and HCT116 cultured in McCoy's 5A/10% FBS were seeded at 15000 cells/well cells into Corning 384-well plates, respectively. Cells were incubated overnight in a TC incubator. Compounds were serially diluted and added to cells for 2 h in a TC incubator. Cells were then lysed according to manufacture protocol (Cisbio CAT #: 64AERPEG). Cell lysate was mixed with phospho-ERK (Thr202/Tyr204) antibody solution at 5:1 (v:v). Lysate and antibody mixture were incubated overnight at room temperature. HTRF signal was read at two different wavelengths (665 nm and 620 nm) on a compatible HTRF reader.
For orientation: In TR-FRET formats the signal depends on donor and acceptor labels being close together.

For a further assay, the system named is HCT116 cells. As to the kind of experiment: HCT116 Cell Titer Glow assay (CTG). Particulars: Homo sapiens, HCT-116, 72 h.
For assay [4], the system named is pERK Thr202/Tyr204. Briefly: pERK HTRF detection of pERK Thr202/Tyr204, A549 cells. Type of assay: cell-based. Particulars: Homo sapiens, 2 h compound. On the procedure: as §3, §4

Protocol for IPC298 cells: HCT116 and IPC298 Cell Titer Glow Assay (CTG)
HCT116 cells and IPC298 cells were diluted with culture medium to the desired density 500 cells/well and 40 μL of cell suspension were added into each well of 384-well cell culture plate. […] The plates were covered and stored at room temperature for 30 minutes without shaking and then the plates were transferred into a 37° C. 5% CO2 incubator overnight.
A 10 mM solution in dimethyl sulfoxide (DMSO) was prepared for each test compound. A 3 fold, 10-point dilution was prepared from the stock solution. 40 nl of each solution in 100% DMSO was added to the 384-well plate and diluted to a final 0.1% DMSO final concentration. The plates were then incubated for 72 hours (for both cell lines) at 37° C.
CellTiter-Glo® 2.0 Reagent (Promega, G9242) was removed from the refrigerator and equilibrated at room temperature (23° C.) for 60 minutes. The plates were then removed from the incubator and allowed to equilibrate to room temperature. 30 μL CellTiter-Glo® 2.0 Reagent were added to the assay plates, and spun 1 min/1000 rpm. The plates were allowed to stand for about 20 minutes before being read on Envision using a standard luminescence readout. DMSO was employed as negative control (High control, HC) and 1 uM Staurosporine was employed as positive control (Low control, LC).
The percent (%) inhibition at each concentration of compound was calculated based on the signal in the negative and positive control wells contained within each assay plate.

One may read the IC50 as the concentration that gives 50% inhibition. On to `CCc1ccc(Nc2cncc(Cc3ccnc(NS(=O)(=O)NC)c3F)c2C)c(F)c1` [Example 10, N-(4-ethyl-2-fluorophenyl)-5-({3-fluoro-2-[(methylsulfamoyl)amino]pyridin-4-yl}methyl)-4-methylpyridin-3-amine], for which the IC50 in the assay with IPC298 cells, in the assay with pMEK [1], in the assay on pMEK [2], in the assay on pERK Thr202/Tyr204 [3], in the assay with HCT116 cells (read-out: CTG IC50 (nM) Cell Line: HCT116.20) and in the assay on pERK Thr202/Tyr204 [4] was below 10 nM in each case.
As usually defined, the viability is a read-out of living cells in per cent, often relative to untreated cells. As for `CNS(=O)(=O)Nc1nccc(Cc2cncc(Nc3ccc(C#N)cc3F)c2C)c1F` [Example 11, 3-fluoro-4-{[5-({3-fluoro-2-[(methylsulfamoyl)amino]pyridin-4-yl}methyl)-4-methylpyridin-3-yl]amino}benzonitrile], the half-inhibitory concentration (IC50) in the assay on IPC298 cells is 10 to 100 nM; with pMEK [1] it was 10 to 100 nM; in the assay with pMEK [2], below 10 nM; with pERK Thr202/Tyr204 [3], below 10 nM; with pERK Thr202/Tyr204 [4] it was below 10 nM. In the assay with HCT116 cells (read-out: CTG % cell viability 1000 uM HCT116.20, HCT116 cells, 72 hours, 1000 uM, percent cells remaining after treatment), the viability at 1000 µM turned out to be 31.8%.
